{"source": "patent US20020182655A1", "about": "“Method for identifying ligands for G protein-coupled receptors” (priority 2001, published 2002)", "key": {"hGPR 6": {"target": "hGPR 6 (Homo sapiens, UniProt P46095)", "sequence (P46095 whole entry)": "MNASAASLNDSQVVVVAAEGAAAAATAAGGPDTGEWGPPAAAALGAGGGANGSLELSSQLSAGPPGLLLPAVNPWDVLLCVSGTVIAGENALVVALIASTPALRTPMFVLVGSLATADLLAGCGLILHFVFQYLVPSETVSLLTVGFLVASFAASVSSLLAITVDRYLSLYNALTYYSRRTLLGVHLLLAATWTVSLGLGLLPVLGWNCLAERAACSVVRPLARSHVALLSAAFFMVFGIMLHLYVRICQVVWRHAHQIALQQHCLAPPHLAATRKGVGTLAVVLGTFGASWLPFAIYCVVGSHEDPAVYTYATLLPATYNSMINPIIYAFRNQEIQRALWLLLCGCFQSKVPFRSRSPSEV", "assay": "Ca2+ FLIPR assay in HEK293 cells transiently transfected with hGPR 6", "format": "cell-based", "method": "(§1) Transient transfections were carried out by incubating 5×10^5 HEK293 cells or 2×10^5 CHO-K1 cells in 6-well plates at 37° C. for 24 hours. The cells were then transfected with 1 to 2 μg of a vector, pcDNA 3.1, into which a GPR 3 gene was inserted by Hind III and Xba I sites, under the control of pcDNA 3.1. It is also expected that GPR 3, 6, or 12 may be cloned under control of the eukaryotic CMV promoter or of a control plasmid without corresponding cloned insert. The HEK293 cells were transfected with the aid of FuGene 6 transfection reagent (commercially available, for example from Roche Diagnostics) and the CHO cells were transfected with the aid of Lipofectamine reagent (commercially available, for example from GIBCO-BRL), in each case according to the manufacturer's instructions.\n(§2) HEK293 cells were transferred to 96-well microtiter plates 24 hours after transient transfection. The cell density was 80,000 cells per well. The microtiter plates were coated with poly-D-lysine. […] The compounds to be analyzed, i.e., S1P, DHS1P, suramin, and compounds from the lipid library, were present as 2 mM stock solutions in DMSO (dimethyl sulfoxide). […]\n(§3) The FLIPR was programmed such that 50 μl of the triple-concentrated suramin stock solution were added to the cells, leading to a final suramin concentration of 300 μM. Fluorescence was measured in 3 second intervals for the first 3 minutes and in 10 second intervals for the last 2 minutes. Ca^2+ signals of ligands were determined similarly.\n(§4) The fluorescence data of the 18 to 36 second time interval were used to determine agonist activity.\n(§5) Regarding the FLIPR assay, HEK293 cells were transferred to 96-well microtiter plates 24 hours after transient transfection. […] Compounds to be analyzed, e.g., S1P and DHS1 P, were added at this stage. Fluorescence was measured by means of a fluorometric imaging plate reader in 3 second intervals for the first 3 minutes and in 10 second intervals for the last 2 minutes. The fluorescence data of the 18 to 36 second time interval were used to determine agonist activity. […]"}, "hGPR 12": {"target": "T1, hGPR 12 (Homo sapiens, UniProt P47775)", "T1 sequence (P47775 1-334)": "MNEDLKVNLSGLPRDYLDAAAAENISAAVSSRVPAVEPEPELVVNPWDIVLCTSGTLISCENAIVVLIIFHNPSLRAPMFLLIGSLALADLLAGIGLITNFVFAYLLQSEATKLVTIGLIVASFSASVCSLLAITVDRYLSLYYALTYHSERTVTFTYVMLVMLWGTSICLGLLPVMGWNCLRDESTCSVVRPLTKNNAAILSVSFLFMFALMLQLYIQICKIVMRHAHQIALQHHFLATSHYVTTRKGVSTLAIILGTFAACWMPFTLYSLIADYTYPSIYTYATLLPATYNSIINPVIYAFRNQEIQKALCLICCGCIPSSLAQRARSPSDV", "assay": "Ca2+ FLIPR assay in HEK293 cells transiently transfected with hGPR 12", "format": "cell-based", "method": "as §1, §2, §3, §4, §5"}, "hGPR 3": {"target": "hGPR 3 (Homo sapiens, UniProt P46089)", "sequence (P46089 whole entry)": "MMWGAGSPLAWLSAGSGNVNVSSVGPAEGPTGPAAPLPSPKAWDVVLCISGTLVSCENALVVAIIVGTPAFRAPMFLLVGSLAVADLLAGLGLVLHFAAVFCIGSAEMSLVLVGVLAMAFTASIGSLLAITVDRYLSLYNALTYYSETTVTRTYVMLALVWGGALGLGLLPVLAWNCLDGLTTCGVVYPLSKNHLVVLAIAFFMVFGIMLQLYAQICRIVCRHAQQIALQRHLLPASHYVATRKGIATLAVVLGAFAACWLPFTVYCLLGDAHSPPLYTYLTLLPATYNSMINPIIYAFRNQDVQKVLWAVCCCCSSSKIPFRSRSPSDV", "assay": "Ca2+ FLIPR assay in HEK293 cells transiently transfected with hGPR 3", "format": "cell-based", "method": "as §1, §2, §3, §4, §5"}, "HEK293 cells": {"system": "HEK293 cells", "assay": "Ca2+ release in HEK293 cells", "format": "cell-based, human", "conditions": "for sensitivity of induced Ca2+ release to pertussis toxin: signal runs via Gαi-type G proteins", "method": "HEK293 cells were transferred to 96-well microtiter plates 24 hours after transient transfection. The cell density was 80,000 cells per well. The microtiter plates were coated with poly-D-lysine. The cells were kept in medium containing 1% (v/v) FCS (fetal calf serum) for 18 to 24 hours. After trypsinization, the cells were suspended in DMEM (Dulbecco's modified Eagle's medium) that also contained 25 mM HEPES (N-2-hydroxyethylpiperazine-N′-2-ethanesulfonic acid) pH 7.0, 1% (v/v) FCS, […] and 4 μM dye Fluo4 (fluorescent calcium indicator from Molecular Dynamics), and then incubated at 37° C. with 5% (v/v) CO2 for 1 hour. The cells were then washed 3 times with PBS (phosphate-buffered saline) containing 1 mM MgCl2, 1 mM EDTA and 0.4 mg/ml FAF-BSA (fatty acid-free bovine serum albumin). After the last washing step, the volume was 100 ,μl per […]. The compounds to be analyzed, i.e., S1P, DHS1P, suramin, and compounds from the lipid library, were present as 2 mM stock solutions in DMSO (dimethyl sulfoxide). These stock solutions were diluted 1:500 with the PBS solution containing 1 mM MgCl2, 1 mM EDTA and 0.4 mg/ml FAF-BSA. Lipids were present in the form of triple-concentrated 900 μM solutions prior to the assay. Suramin (Sigma) was prepared in the form of a triple-concentrated 900 μM solution in PBS containing 1 mM MgCl2, 1 EDTA, and 0.4 mg/ml FAF-BSA.\nas §3, §4\nRegarding the FLIPR assay, HEK293 cells were transferred to 96-well microtiter plates 24 hours after transient transfection. The cell density was 80,000 cells per well. The microtiter plates were coated with poly-D-lysine. The cells were kept in medium containing 1% (v/v) FCS (fetal calf serum) for 18 to 24 hours. […] Compounds to be analyzed, e.g., S1P and DHS1 P, were added at this stage. Fluorescence was measured by means of a fluorometric imaging plate reader in 3 second intervals for the first 3 minutes and in 10 second intervals for the last 2 minutes. The fluorescence data of the 18 to 36 second time interval were used to determine agonist activity. The reader itself equalizes internally the zero values."}}}
{"smiles": "CCCCCCCCCCCCCCC[C@@H](O)[C@@H](N)COP(=O)(O)O", "note": "[DHS1P, dihydrosphingosine 1-phosphate]", "values": [{"measurement": "identification as ligand (agonist activity, Ca2+ signal)", "setting": "hGPR 6", "value": "physiological ligands"}, {"measurement": "identification as ligand (agonist activity, Ca2+ signal)", "setting": "hGPR 12", "value": "physiological ligands"}, {"measurement": "identification as ligand (agonist activity, Ca2+ signal)", "setting": "hGPR 3", "value": "physiological ligands"}, {"measurement": "Ca2+ release", "setting": "HEK293 cells", "value": "cause Ca^2+release"}, {"measurement": "sensitivity of induced Ca2+ release to pertussis toxin", "setting": "HEK293 cells", "value": "pertussis toxin-sensitive"}]}
{"smiles": "CCCCCCCCCCCCC/C=C/[C@@H](O)[C@@H](N)COP(=O)(O)O", "note": "[S1P, sphingosine 1-phosphate]", "values": [{"measurement": "identification as ligand (agonist activity, Ca2+ signal)", "setting": "hGPR 6", "value": "physiological ligands"}, {"measurement": "EC50", "setting": "hGPR 6; Ca2+ FLIPR", "value": "< 100", "unit": "nM"}, {"measurement": "identification as ligand (agonist activity, Ca2+ signal)", "setting": "hGPR 12", "value": "physiological ligands"}, {"measurement": "EC50", "setting": "hGPR 12; Ca2+ FLIPR", "value": "< 100", "unit": "nM"}, {"measurement": "identification as ligand (agonist activity, Ca2+ signal)", "setting": "hGPR 3", "value": "physiological ligands"}, {"measurement": "EC50", "setting": "hGPR 3; Ca2+ FLIPR", "value": "< 100", "unit": "nM"}, {"measurement": "Ca2+ release", "setting": "HEK293 cells", "value": "cause Ca^2+release"}, {"measurement": "sensitivity of induced Ca2+ release to pertussis toxin", "setting": "HEK293 cells", "value": "pertussis toxin-sensitive"}]}
